Laboratory results as given in PubChem BioAssay (NCI).
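Five compound concentrations were applied to cells in 96-well plates for 48 hours; endpoints were derived by simple linear interpolation of the resulting dose-response curve. GI50 is the concentration that inhibits growth by half. TGI marks complete inhibition of growth.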

Legend:
Test in all cases: NCI tumour cell line growth inhibition, 48 h
HCC-2998 colon = tested on: HCC-2998 colon
HCT-116 colon = tested on: HCT-116 colon
HT29 colon = tested on: HT29 colon
NCI-H522 lung = tested on: NCI-H522 lung
NCI/ADR-RES ovarian = tested on: NCI/ADR-RES ovarian
RPMI-8226 leukemia = tested on: RPMI-8226 leukemia
RXF 393 renal = tested on: RXF 393 renal
SK-MEL-5 melanoma = tested on: SK-MEL-5 melanoma
SR leukemia = tested on: SR leukemia
UACC-257 melanoma = tested on: UACC-257 melanoma

| SMILES | TGI (HCC-2998 colon) [nM] | TGI (HCT-116 colon) [nM] | TGI (HT29 colon) [nM] | TGI (NCI-H522 lung) [nM] | TGI (NCI/ADR-RES ovarian) [nM] | TGI (RPMI-8226 leukemia) [nM] | TGI (RXF 393 renal) [nM] | TGI (SK-MEL-5 melanoma) [nM] | TGI (SR leukemia) [nM] | TGI (UACC-257 melanoma) [nM] | GI50 (HCC-2998 colon) [nM] | GI50 (HCT-116 colon) [nM] | GI50 (HT29 colon) [nM] | GI50 (NCI-H522 lung) [nM] | GI50 (NCI/ADR-RES ovarian) [nM] | GI50 (RPMI-8226 leukemia) [nM] | GI50 (RXF 393 renal) [nM] | GI50 (SK-MEL-5 melanoma) [nM] | GI50 (SR leukemia) [nM] | GI50 (UACC-257 melanoma) [nM] |
| --- | --- | --- | --- | --- | --- | --- | --- | --- | --- | --- | --- | --- | --- | --- | --- | --- | --- | --- | --- | --- |
| CC1=C2CC(C)(C)/C=C\C(=O)/C(C)=C\C3=C[C@H](C)C[C@]3(O2)C1=O | 10200 | 1090 | 2760 | 651 | 7770 | 1510 | 2130 | 8060 | 826 | 4410 | – | – | – | – | – | – | – | – | – | – |
| O=C1/C=C/[C@@H](O)[C@@H]2C[C@@H](O)C[C@H]2/C=C/CCC[C@H](CCc2cccc3ccccc23)O1 | 330 | 283 | 373 | 581 | 1860 | 2730 | 67.4 | 32.6 | 1330 | 983 | 44.4 | 120 | 34.7 | 234 | 38.9 | 84.7 | 22.7 | 17.1 | 35.3 | 30.3 |
| C=C(CN1CCN(c2ccc(C(F)(F)F)cc2)CC1)c1ccc(C(=O)Nc2ccccc2N)cc1 | > 100000 | > 100000 | > 100000 | > 100000 | > 100000 | – | 6000 | > 100000 | > 100000 | > 100000 | 30200 | 11400 | > 75700 | 1850 | 3370 | 405 | 1970 | 4430 | 1100 | 2390 |
| C=C1CC2(CC(c3ccccc3Cl)OC(c3ccccc3Cl)C2)OC1=O (centres undefined) | 7740 | 3170 | 6680 | 3300 | 8550 | 3840 | 4770 | 10400 | 14200 | 5140 | – | – | – | – | – | – | – | – | – | – |
| CC/C=C\C[C@H](F)C/C=C1/C(=O)C=C[C@@H]1C/C=C\CCCC(=O)OC | 10600 | 1790 | 4670 | 5080 | 35000 | 5490 | 14300 | 3130 | 3420 | 10100 | 4100 | 880 | 1690 | 1320 | 1710 | 1390 | 6950 | 1290 | 1060 | 2750 |
